Measurements taken from patent US20180371384A1, “METHOD FOR PRODUCING ROOTING-SUPPRESSED MALT” (SUNTORY HOLDINGS LIMITED, priority 2015, published 2018).

How the values were obtained:
β-amylase = assay: Measurement of β-amylase level in malts; set-up: species or system barley
Procedure: One gram of […] previously cryo-milled with ShakeMaster manufactured by Medical Bio Science is suspended in 2 mL of a buffer suitable for the measurement of activities of various enzymes, extraction is carried out for 60 minutes in iced water, and the extracts are then subjected to ultracentrifugation treatment (1,000 g×20 minutes), to provide the supernatant as an enzyme solution. Enzyme extracts from […] to Betamyl (p-nitrophenyl maltotriose; […]

[1] = tested on: acrid component (hordatine glycoside); assay: Measurement of acrid components in malts (LCMS); set-up: species or system barley
From the text: In addition, the content of the acrid component in the acidic steeping malts obtained is, for example, lowered in a case of a pH of from 1.8 to 2.0 of the acidic steeping water, and the content is preferably 90% by weight or less, more preferably 80% by weight or less, even more preferably 75% by weight or less, even more preferably 70% by weight or less, even more preferably 60% by weight or less, and even more preferably 55% by weight or less, when defining the content of the acrid component in normal malts as 100% by weight. Here, the acrid component as used herein refers to a hordatine glycoside, and the content can be measured in accordance with a method set forth in the following Examples.
The amount 5.0 g of malts which are previously cryo-milled with ShakeMaster manufactured by Medical Bio Science are suspended in 40 mL of hot water at 65° C., and extraction is carried out at 65° C. for 1 hour. Thereafter, the extracts are subjected to centrifugation at 5,000 rpm for 20 minutes, and 10 mL of the supernatant is applied to PLS-2 solid phase column of GL Science (activated with methanol or the like), the column is washed with water, and thereafter fractions eluted with 20% ethanol are collected. The eluents are concentrated with SpeedVac, a concentrate is then freeze-dried, the freeze-dried product is dissolved in water, and the solution is subjected to LCMS under the following conditions, to obtain area of peak thereof.
Apparatus; LCMS-2020 manufactured by Shimadzu Corporation
Column: Polar column (Develosil-C30-UG-5. φ2×150 mm)
Mobile phase: Gradient of water containing 0.1% formic acid/acetocetonitrile[sic] • 0 to 62.5 minutes (2→10% acetonitrile) • 62.5 to 72.5 minutes (10% acetonitrile)
Column temperature: 40° C.

α-amylase = assay: Measurement of α-amylase level in malts; set-up: species or system barley
Procedure: One gram of malts which are previously cryo-milled with ShakeMaster manufactured by Medical Bio Science is suspended in 2 mL of a buffer suitable for the measurement of activities of various enzymes, extraction is carried out for 60 minutes in iced water, and the extracts are then subjected to ultracentrifugation treatment (1,000 g×20 minutes), to provide the supernatant as an enzyme solution.
A crop a amylase kit from BIOCON is used. A blocked p-nitrophenyl maltoheptaoside (BPNPG7) is used as a substrate, enzyme extracts from malts are added thereto, and the mixture is reacted at 40° C. for 20 minutes. The reaction is stopped with Trizma base, and p-nitrophenyl maltosaccharide produced is degraded with glucoamylase, α-glucosidase. P-nitrophenol produced is subjected to phenolate color development, and the absorbance is measured at 410 nm (n=5).

endoprotease = assay: Measurement of endoprotease level in malts; set-up: species or system barley
Procedure: One gram of […] previously cryo-milled with ShakeMaster manufactured by Medical Bio Science is suspended in 2 mL of a buffer suitable for the measurement of activities of various enzymes, extraction is carried out for 60 minutes in iced water, and the extracts are then subjected to ultracentrifugation treatment (1,000 g×20 minutes), to provide the supernatant as an enzyme solution. Azo-stained casein is used as a substrate, enzyme extracts from […] thereto, and the mixture is reacted at 40° C. for 30 minutes. The reaction is stopped with a TCA solution, the solution is allowed to stand for 5 minutes, the mixture is then subjected to centrifugation to precipitate an undegraded substrate, and the supernatant is subjected to colorimetry at 366 mn (n=5). Here, an enzyme activity is defined such that an enzyme concentration of an enzyme liquid which is added to an enzyme reaction liquid to increase the absorbance by 1.0 is 1 U/mL. […] A pH of the solution is then adjusted to 8.5 with a diluted sulfuric acid, and a volume is tilled up to 100 mL.

barley (Sukai Golden) = assay: Amount of rooting, yield and length of acrospires (Test Example 3); assay type: in vivo; conditions: for Amount of Rooting Based on 100 g of Barley: germination 5 days at 20° C.
From the text: Here, the rooting amount used herein means total weight of a root thrusting out of the surface of each grain in malts which are malted from 100 g of raw material barley.
Crops of Sukai Golden harvested in the year 2013 (99% of germination ratio) were used as domestic (Japan) two-row malting barley cultivar. and steeping conditions were the same as those in Test Example 1. A standard in which steeping of barley was earned out in pure water (pH 7.0) was defined as “normal steeping bailey (Comparative Example 2),” and a standard in which steeping of barley was earned out in an aqueous solution having a pH listed in Table 3 with phosphoric acid was defined as “acidic steeping barley (Example 2),” and three batches of malts each of which was obtained by going through the steps of steeping, germination and kilning were prepared. For each of batches of the normal malts and the acidic steeping barley obtained, the weight of rooting was obtained, and an average length of acrospires and an yield were obtained in the same manner as Test Example 1 to calculate an average thereof. In addition, each of the contents of an acrid component and β-glucan was measured as follows, and the contents of enzymes were measured in the same manner as Test Example 2. […] In addition, the germination was carried out for 5 days while keeping a temperature at 20° C. In addition, an yield was calculated as X/100 (%) from X g of a weight of roots-removed malts obtained from 100 g of barley.

## O=P(O)(O)O [Phosphoric Acid, phosphoric acid]
β-amylase; Initial pH 1.5, 223 mM
  β-Amylase (Based on Normal Steeping Barley, %): 187%
β-amylase; Initial pH 1.6, 176 mM
  β-Amylase (Based on Normal Steeping Barley, %): 128%
β-amylase; Initial pH 1.8, 82 mM
  β-Amylase (Based on Normal Steeping Barley, %): 557%
β-amylase; Initial pH 2.0, 29 mM
  β-Amylase (Based on Normal Steeping Barley, %): 400%
β-amylase; Initial pH 2.2, 18 mM
  β-Amylase (Based on Normal Steeping Barley, %): 370%
β-amylase; Initial pH 2.4, 7 mM
  β-Amylase (Based on Normal Steeping Barley, %): 221%
[1]; Initial pH 1.5, 223 mM
  Acrid Component (Based on Normal Steeping Barley, % by weight): 259 % by weight
[1]; Initial pH 1.6, 176 mM
  Acrid Component (Based on Normal Steeping Barley, % by weight): 104 % by weight
[1]; Initial pH 1.8, 82 mM
  Acrid Component (Based on Normal Steeping Barley, % by weight): 53 % by weight
[1]; Initial pH 2.0, 29 mM
  Acrid Component (Based on Normal Steeping Barley, % by weight): 80 % by weight
[1]; Initial pH 2.2, 18 mM
  Acrid Component (Based on Normal Steeping Barley, % by weight): 116 % by weight
[1]; Initial pH 2.4, 7 mM
  Acrid Component (Based on Normal Steeping Barley, % by weight): 120 % by weight
α-amylase; Initial pH 1.5, 223 mM
  α-Amylase (Based on Normal Steeping Barley, %): 21%
α-amylase; Initial pH 1.6, 176 mM
  α-Amylase (Based on Normal Steeping Barley, %): 25%
α-amylase; Initial pH 1.8, 82 mM
  α-Amylase (Based on Normal Steeping Barley, %): 39%
α-amylase; Initial pH 2.0, 29 mM
  α-Amylase (Based on Normal Steeping Barley, %): 90%
α-amylase; Initial pH 2.2, 18 mM
  α-Amylase (Based on Normal Steeping Barley, %): 90%
α-amylase; Initial pH 2.4, 7 mM
  α-Amylase (Based on Normal Steeping Barley, %): 91%
endoprotease; Initial pH 1.5, 223 mM
  Endoprotease (Based on Normal Steeping Barley, %): 16%
endoprotease; Initial pH 1.6, 176 mM
  Endoprotease (Based on Normal Steeping Barley, %): 20%
endoprotease; Initial pH 1.8, 82 mM
  Endoprotease (Based on Normal Steeping Barley, %): 45%
endoprotease; Initial pH 2.0, 29 mM
  Endoprotease (Based on Normal Steeping Barley, %): 65%
endoprotease; Initial pH 2.2, 18 mM
  Endoprotease (Based on Normal Steeping Barley, %): 68%
endoprotease; Initial pH 2.4, 7 mM
  Endoprotease (Based on Normal Steeping Barley, %): 35%
Barley (Sukai Golden); Initial pH 1.5, 223 mM
  Length of Acrospires: 0.38
  Amount of Rooting Based on 100 g of Barley: 0.03 g
Barley (Sukai Golden); Initial pH 1.6, 176 mM
  Length of Acrospires: 0.38
  Amount of Rooting Based on 100 g of Barley: 0.03 g
Barley (Sukai Golden); Initial pH 1.8, 82 mM
  Length of Acrospires: 0.38
  Amount of Rooting Based on 100 g of Barley: 0.05 g
Barley (Sukai Golden); Initial pH 2.0, 29 mM
  Length of Acrospires: 0.62
  Amount of Rooting Based on 100 g of Barley: 0.30 g
Barley (Sukai Golden); Initial pH 2.2, 18 mM
  Length of Acrospires: 0.63
  Amount of Rooting Based on 100 g of Barley: 1.51 g
Barley (Sukai Golden); Initial pH 2.4, 7 mM
  Length of Acrospires: 0.63
  Amount of Rooting Based on 100 g of Barley: 2.90 g
